{"source": "paper PMC10257182", "about": "“Discovery of senolytics using machine learning” (Nature Communications, 2023)", "assay_type_in_all_cases": "cell-based, human", "key": {"[1]": {"test_system": "senescent A549 cells (etoposide-induced)", "assay": "Nuclei count senolytic assay, therapy-induced senescence (TIS) model, senescent cells", "settings": "for Mean % Cell Survival: Senescent cells; for % Cell Survival: senescence cells, single replicate", "summary_of_the_method": "(§1)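 A549 cells were made senescent with 100 μM etoposide for 48 h, then kept three days in normal media; non-senescent A549 served as controls. Compounds were dosed as a 10-point […] series (10 μM to 10 nM final) for 72 h in triplicate. Hoechst-stained nuclei were counted by imaging after fixation.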"}, "[2]": {"test_system": "non-senescent control A549 cells", "assay": "Nuclei count senolytic assay, TIS model, non-senescent control cells", "settings": "for Mean % Cell Survival: Control cells; for % Cell Survival: control cells, single replicate", "summary_of_the_method": "as §1"}, "[3]": {"test_system": "senescent IMR90 ER:RAS cells (4-OHT-induced)", "assay": "Nuclei count (Hoechst, high content imaging) senolytic assay, oncogene-induced senescence (OIS) model, senescent cells", "settings": "for Mean % Cell Survival: Senescent, mean n=3 (Fig 3C); for % Cell Survival: senescence", "summary_of_the_method": "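Senescence in IMR90 ER:RAS fibroblasts induced with 100 nM 4-OHT; non-senescent and senescent cells treated 72 h with compounds, 10-point […] range 10 μM–10 nM, triplicate. Cells fixed, permeabilised, Hoechst-stained; total nuclei per well counted by high-content imaging versus untreated controls as cell-death readout.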"}}, "note": "Values joined by “and” are separate entries in the source; they are usually repeats but may differ in a detail not shown here. Equal values may be shown once.", "data": [{"compound": "CO[C@H]1C[C@H](O[C@H]2CC[C@]3(C)[C@H]4CC[C@]5(C)[C@@H](C6=CC(=O)OC6)CC[C@]5(O)[C@@H]4CC[C@]3(O)C2)O[C@H](C)[C@H]1O[C@@H]1O[C@H](CO)[C@@H](O)[C@H](O)[C@H]1O", "note": "[Periplocin, periplocin]", "values": [{"measurement": "concentration at which a senolytic effect was reached", "setting": "[1]; TIS A549, Hoechst labelling, marginal effect on normal cells", "result": 46.4, "unit": "nM"}, {"measurement": "IC50", "setting": "[1]; TIS model, etoposide-induced senescent A549, nuclei count, 72 h", "result": 72.2, "unit": "nM"}, {"measurement": "senolytic action (in words)", "setting": "[1]; experimental screen, TIS senescent A549", "result": "strong senolytic action"}, {"measurement": "Mean % Cell Survival", "setting": "[1]; log (dose) [M] -5", "result": 2.656, "unit": "%"}, {"measurement": "% Cell Survival", "setting": "[1]; log (dose) [M] -5", "result": "2.664% and 2.743% and 2.561%"}, {"measurement": "Mean % Cell Survival", "setting": "[1]; log (dose) [M] -5.33", "result": 3.4604, "unit": "%"}, {"measurement": "% Cell Survival", "setting": "[1]; log (dose) [M] -5.33", "result": "2.7192% and 5.421% and 2.241%"}, {"measurement": "Mean % Cell Survival", "setting": "[1]; log (dose) [M] -5.66", "result": 3.427, "unit": "%"}, {"measurement": "% Cell Survival", "setting": "[1]; log (dose) [M] -5.66", "result": "2.83% and 4.507% and 2.945%"}, {"measurement": "Mean % Cell Survival", "setting": "[1]; log (dose) [M] -6", "result": 6.477, "unit": "%"}, {"measurement": "% Cell Survival", "setting": "[1]; log (dose) [M] -6", "result": "6.937% and 6.9889% and 5.506%"}, {"measurement": "Mean % Cell Survival", "setting": "[1]; log (dose) [M] -6.33", "result": 11.1387, "unit": "%"}, {"measurement": "% Cell Survival", "setting": "[1]; log (dose) [M] -6.33", "result": "13.0411% and 10.516% and 9.859%"}, {"measurement": "Mean % Cell Survival", "setting": "[1]; log (dose) [M] -6.66", "result": 17.1368, "unit": "%"}, {"measurement": "% Cell Survival", "setting": "[1]; log (dose) [M] -6.66", "result": "19.7003% and 13.9125% and 17.7977%"}, {"measurement": "Mean % Cell Survival", "setting": "[1]; log (dose) [M] -7", "result": 34.3857, "unit": "%"}, {"measurement": "% Cell Survival", "setting": "[1]; log (dose) [M] -7", "result": "35.4051% and 33.1809% and 34.5711%"}, {"measurement": "Mean % Cell Survival", "setting": "[1]; log (dose) [M] -7.33", "result": 62.5957, "unit": "%"}, {"measurement": "% Cell Survival", "setting": "[1]; log (dose) [M] -7.33", "result": "65.3163% and 61.2671% and 61.2036%"}, {"measurement": "Mean % Cell Survival", "setting": "[1]; log (dose) [M] -7.66", "result": 94.3691, "unit": "%"}, {"measurement": "% Cell Survival", "setting": "[1]; log (dose) [M] -7.66", "result": "88.7902% and 97.518% and 96.799%"}, {"measurement": "Mean % Cell Survival", "setting": "[1]; log (dose) [M] -8", "result": 98.9494, "unit": "%"}, {"measurement": "% Cell Survival", "setting": "[1]; log (dose) [M] -8", "result": "101.831% and 100.523% and 94.4942%"}, {"measurement": "IC50", "setting": "[2]; TIS model, non-senescent A549, nuclei count, 72 h", "result": 267, "unit": "nM"}, {"measurement": "Mean % Cell Survival", "setting": "[2]; log (dose) [M] -5", "result": 2.124, "unit": "%"}, {"measurement": "% Cell Survival", "setting": "[2]; log (dose) [M] -5", "result": "2.877% and 2.211% and 1.286%"}, {"measurement": "Mean % Cell Survival", "setting": "[2]; log (dose) [M] -5.33", "result": 3.638, "unit": "%"}, {"measurement": "% Cell Survival", "setting": "[2]; log (dose) [M] -5.33", "result": "1.2112% and 8.916% and 0.7857%"}, {"measurement": "Mean % Cell Survival", "setting": "[2]; log (dose) [M] -5.66", "result": 7.571, "unit": "%"}, {"measurement": "% Cell Survival", "setting": "[2]; log (dose) [M] -5.66", "result": "13.9288% and 0.7846% and 8%"}, {"measurement": "Mean % Cell Survival", "setting": "[2]; log (dose) [M] -6", "result": 7.77, "unit": "%"}, {"measurement": "% Cell Survival", "setting": "[2]; log (dose) [M] -6", "result": "11.9606% and 5.492% and 5.857%"}, {"measurement": "Mean % Cell Survival", "setting": "[2]; log (dose) [M] -6.33", "result": 26.1787, "unit": "%"}, {"measurement": "% Cell Survival", "setting": "[2]; log (dose) [M] -6.33", "result": "37.7744% and 16.7618% and 24%"}, {"measurement": "Mean % Cell Survival", "setting": "[2]; log (dose) [M] -6.66", "result": 59.1283, "unit": "%"}, {"measurement": "% Cell Survival", "setting": "[2]; log (dose) [M] -6.66", "result": "65.1022% and 52.2111% and 60.0714%"}, {"measurement": "Mean % Cell Survival", "setting": "[2]; log (dose) [M] -7", "result": 84.2496, "unit": "%"}, {"measurement": "% Cell Survival", "setting": "[2]; log (dose) [M] -7", "result": "92.3543% and 73.8231% and 86.5714%"}, {"measurement": "Mean % Cell Survival", "setting": "[2]; log (dose) [M] -7.33", "result": 108.222, "unit": "%"}, {"measurement": "% Cell Survival", "setting": "[2]; log (dose) [M] -7.33", "result": "116.881% and 101.07% and 106.714%"}, {"measurement": "Mean % Cell Survival", "setting": "[2]; log (dose) [M] -7.66", "result": 106.048, "unit": "%"}, {"measurement": "% Cell Survival", "setting": "[2]; log (dose) [M] -7.66", "result": "102.877% and 112.197% and 103.071%"}, {"measurement": "Mean % Cell Survival", "setting": "[2]; log (dose) [M] -8", "result": 97.1202, "unit": "%"}, {"measurement": "% Cell Survival", "setting": "[2]; log (dose) [M] -8", "result": "99.8486% and 91.5121% and 100%"}, {"measurement": "dose showing the clearest / optimal senolytic effect", "setting": "[3]; OIS IMR90 ER:RAS, Hoechst nuclei count, marginal effect on normal cells", "result": 46.4, "unit": "nM"}, {"measurement": "IC50", "setting": "[3]; OIS model, 4-OHT-induced IMR90 ER:RAS, nuclei count, 72 h", "result": 24, "unit": "nM"}, {"measurement": "Mean % Cell Survival", "setting": "[3]; log (dose) [M] -5, 72 h", "result": 3.183, "unit": "%"}, {"measurement": "Mean % Cell Survival", "setting": "[3]; log (dose) [M] -5.33, 72 h", "result": 6.126, "unit": "%"}, {"measurement": "Mean % Cell Survival", "setting": "[3]; log (dose) [M] -5.66, 72 h", "result": 4.43, "unit": "%"}, {"measurement": "Mean % Cell Survival", "setting": "[3]; log (dose) [M] -6, 72 h", "result": 4.805, "unit": "%"}, {"measurement": "Mean % Cell Survival", "setting": "[3]; log (dose) [M] -6.33, 72 h", "result": 5.142, "unit": "%"}, {"measurement": "Mean % Cell Survival", "setting": "[3]; log (dose) [M] -6.66, 72 h", "result": 5.675, "unit": "%"}, {"measurement": "Mean % Cell Survival", "setting": "[3]; log (dose) [M] -7, 72 h", "result": 6.834, "unit": "%"}, {"measurement": "Mean % Cell Survival", "setting": "[3]; log (dose) [M] -7.33, 72 h", "result": 16.5597, "unit": "%"}, {"measurement": "Mean % Cell Survival", "setting": "[3]; log (dose) [M] -7.66, 72 h", "result": 54.5059, "unit": "%"}, {"measurement": "Mean % Cell Survival", "setting": "[3]; log (dose) [M] -8, 72 h", "result": 96.9401, "unit": "%"}, {"measurement": "senolytic activity (in words)", "setting": "[3]; experimental screen, OIS IMR90 ER:RAS", "result": "clear senolytic action"}, {"measurement": "senolytic index (SI)", "setting": "[3]; ratio between the IC50 of control cells and the IC50 of senescent cells, OIS IMR90 ER:RAS", "result": 12.3}, {"measurement": "% Cell Survival", "setting": "[3]; log (dose) [M] -5, individual replicates (Fig 3D)", "result": "3.074% and 3.321% and 3.154%"}, {"measurement": "% Cell Survival", "setting": "[3]; log (dose) [M] -5.33, individual replicates (Fig 3D)", "result": "5.0494% and 9.706% and 3.6215%"}, {"measurement": "% Cell Survival", "setting": "[3]; log (dose) [M] -5.66, individual replicates (Fig 3D)", "result": "4.72% and 4.5977% and 3.972%"}, {"measurement": "% Cell Survival", "setting": "[3]; log (dose) [M] -6, individual replicates (Fig 3D)", "result": "4.061% and 4.981% and 5.374%"}, {"measurement": "% Cell Survival", "setting": "[3]; log (dose) [M] -6.33, individual replicates (Fig 3D)", "result": "6.147% and 3.321% and 5.958%"}, {"measurement": "% Cell Survival", "setting": "[3]; log (dose) [M] -6.66, individual replicates (Fig 3D)", "result": "4.501% and 7.152% and 5.374%"}, {"measurement": "% Cell Survival", "setting": "[3]; log (dose) [M] -7, individual replicates (Fig 3D)", "result": "5.818% and 7.791% and 6.893%"}, {"measurement": "% Cell Survival", "setting": "[3]; log (dose) [M] -7.33, individual replicates (Fig 3D)", "result": "17.8924% and 15.198% and 16.5888%"}, {"measurement": "% Cell Survival", "setting": "[3]; log (dose) [M] -7.66, individual replicates (Fig 3D)", "result": "42.1515% and 64.2401% and 57.1262%"}, {"measurement": "% Cell Survival", "setting": "[3]; log (dose) [M] -8, individual replicates (Fig 3D)", "result": "93.8529% and 97.318% and 99.6495%"}]}]}
